The values below come from a melting point compilation (Tetko et al.; mined from patent text by program, amines drawn as free bases though some values may be those of a salt).

On to `CC12CCC(=O)NC1=CCc1cc(F)ccc12` (stereo not drawn), for which the melting point (usually the temperature, or range, at which the solid turns liquid) came to 202 °C. The figure for `CC(C)c1ccc2c(c1)OC(C(F)(F)F)C(C(=O)O)=C2` (stereo not drawn) is 158 to 160 °C; for `CCn1c2ccccc2c2c3c(nc(C)c21)CC(C)(C)CC3=O` it is 174 to 177 °C; for `CN1c2cscc2C(=O)N(CCN2CCOCC2)c2ccccc21` it is 109 to 111 °C.

The molecule `Cc1ccc(N2CC(=O)N(C)C(=O)N2)cc1` yielded a melting point of 193 to 194 °C. The figure for `O=C(Nc1nc(-c2ccccc2)cs1)C(=O)Nc1nc(-c2ccccc2)cs1` is 292 to 293 °C; for `Nc1ccc(Cl)cc1C(O)c1ccccc1F` (stereo not drawn) it is 94 to 98 °C. Regarding `CCOC(=O)c1c(C)ncn1-c1ccc(Cl)c(Cl)c1`, the melting point lay within 135 to 136 °C. To `CCCCNC(=O)Oc1ccc(Oc2ccc([N+](=O)[O-])cc2)cc1` belongs 122 to 124 °C.

As for `CCc1nnc(-c2ncc3[nH]c4cccc(OCc5ccccc5)c4c3c2COC)o1`, the melting point is 230 °C. `O=C(c1cc2c(OC[C@@H](O)CN3CCC(c4ccc5ccccc5c4)CC3)cccc2[nH]1)N1CCCC1` showed a melting point of 158 to 161 °C.

The molecule `N#Cc1ccc(N2CCC(F)(F)C2)c2ccsc12` gave a melting point of 169 to 170 °C. In the case of `CCC(=O)N[C@@H]1CCc2ccc(OC)cc2[C@H]1O`, the melting point is 162 to 163 °C. `CC(C)CNC(=O)C(C)NC(=O)OCc1ccccc1` (stereo not drawn) registered a melting point of 109 to 111 °C. As for `CC(C)c1nn2ccccc2c1C(=O)C1CC1`, the melting point was determined as 72 °C. As for `CC(C)(C)c1csc(-c2cc3cc(CCC(=O)O)ccc3o2)n1`, the melting point lay in the range of 157 to 160 °C. To `Cc1cccc(N2CCN(CCc3c(C)nc4c(C)cccn4c3=O)CC2)c1` belongs 106 °C; to `Cc1cc(COP(N)(=O)N(CCCl)CCCl)ccc1[N+](=O)[O-]` (stereo not drawn), 64 to 66 °C; to `CNc1cc(NS(=O)(=O)c2ccc(F)cc2)nc(NC)n1`, 261 to 263 °C. `CC(=O)Nc1nc(-c2ccc(S(C)=O)cc2)cs1` (stereo not drawn) returned a melting point of 274 °C. `O=c1nc(-c2cccc(CNS(=O)(=O)c3ccccc3)n2)sc2ccccc12` yielded a melting point of 207 to 208 °C. On to `CC(=O)N1c2ccccc2Sc2cc(F)ccc21`, for which the melting point was 125 °C. `Cc1nn2c(O)ccnc2c1-c1cc(-c2ccccc2)cs1` showed a melting point of 218 to 235 °C. For `O=c1nc(-c2ccc3c(n2)CCCC3)sc2ccccc12`, the melting point lay within 232 to 233 °C. Consider `O=C1c2cc([N+](=O)[O-])ccc2CCC1Br` (stereo not drawn), for which the melting point was in the range of 94 to 96 °C. In the case of `CCC(O)c1cc(C(=O)c2ccccc2)no1` (stereo not drawn), the melting point lay in the range of 70 to 71 °C.

In turn, `COCc1cc(N)no1` yielded a melting point of 49 to 52 °C. The figure for `S=c1sscc1-c1ccccc1` is 122 to 124 °C. `CCS(=O)CCC(=O)NNC(=O)N1Cc2ccccc2Oc2ccc(Cl)cc21` (stereo not drawn): the melting point is 185 to 188 °C. For `O=C(O)c1ccc(CCc2ccc(NC(=O)C3CSc4ccccc4C3=O)cc2)cc1` (stereo not drawn), the melting point fell in the range of 256 to 259 °C. For `CN(C)C(=O)COc1ccc2c(-c3ccccc3F)noc2c1Cl`, the melting point is 116 °C. `CC[C@@H]1CCCN1CCc1cc2cc(-c3ccc(C#N)cc3)ccc2o1`: the melting point was determined as 147 °C. Consider `Cc1nnc(-c2ccc(O)cc2)o1`, for which the melting point stood at 239 °C.

Molecule `Cc1oc(-c2ccccc2)nc1COc1ccc2cc(CCCCc3nnn[nH]3)oc2c1` had a melting point of 114 to 115 °C. To `OCc1cc(Cl)c(Cl)c(Cl)n1` belongs 82 to 83 °C; to `CCCCc1ccc(-c2cc(C(=O)O)cc(-c3ccc(Cl)cc3)n2)cc1`, 209 to 210 °C; to `Cn1cc2c(C(F)(F)F)cc(Cl)nc2n1`, 124 °C. In turn, `CCCn1c(=O)cc(OCC)n(Cc2ccc(-c3ccccc3-c3nnn[nH]3)cc2)c1=O` returned a melting point of 108 to 119 °C.
